In patent publication US20110077248A1, “IMIDAZOPYRIDINE AND RELATED ANALOGS AS SIRTUIN MODULATORS” (Sirtris Pharmaceuticals, Inc., priority 2008, published 2011) one finds EC1.5 and Emax data, which are given here for 33 compounds.

This test addresses T1, SIRT1 (Homo sapiens, UniProt Q96EB6).
T1 construct: His-tag (N); made in house; host or cells: E. coli BL21(DE3), T7-promoter vector
T1 sequence (Q96EB6 1-747): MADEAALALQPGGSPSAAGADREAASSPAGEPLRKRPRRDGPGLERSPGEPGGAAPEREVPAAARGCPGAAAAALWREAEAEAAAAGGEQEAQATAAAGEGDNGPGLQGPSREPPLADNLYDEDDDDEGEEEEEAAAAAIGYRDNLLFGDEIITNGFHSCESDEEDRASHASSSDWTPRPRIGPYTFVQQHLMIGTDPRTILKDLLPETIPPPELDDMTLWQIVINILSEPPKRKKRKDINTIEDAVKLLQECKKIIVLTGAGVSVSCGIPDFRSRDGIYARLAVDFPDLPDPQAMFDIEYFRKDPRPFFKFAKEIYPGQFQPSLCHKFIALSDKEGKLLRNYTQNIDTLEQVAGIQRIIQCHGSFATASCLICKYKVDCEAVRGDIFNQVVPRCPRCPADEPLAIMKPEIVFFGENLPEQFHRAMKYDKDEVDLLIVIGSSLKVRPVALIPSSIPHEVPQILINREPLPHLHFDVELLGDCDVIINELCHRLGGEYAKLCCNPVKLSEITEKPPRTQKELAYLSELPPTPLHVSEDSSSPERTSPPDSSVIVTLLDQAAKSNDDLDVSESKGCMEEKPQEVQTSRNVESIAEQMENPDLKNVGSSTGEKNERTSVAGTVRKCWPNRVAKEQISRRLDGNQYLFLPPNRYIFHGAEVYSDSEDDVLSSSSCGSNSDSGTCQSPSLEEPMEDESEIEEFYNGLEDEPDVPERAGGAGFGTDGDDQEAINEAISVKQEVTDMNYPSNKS
The test is described as follows: Mass spectrometry based assay for modulators of SIRT1 activity (deacetylation of p53-based acetylated peptide). The note with it: for EC1.5: concentration of test compound that results in 150% activation of SIRT1, 0.5 μM peptide substrate, 120 μM βNAD+, 10 nM SIRT1, 25 min, 25° C.; for Emax: percent maximum fold activation of SIRT1. The format is biochemical. From the text: A mass spectrometry based assay was used to identify modulators of SIRT1 activity. The mass spectrometry based assay utilizes a peptide having 20 amino acid residues as follows: Ac-EE-K(biotin)-GQSTSSHSK(Ac)NleSTEG-K(5TMRi)-EE-NH2 (SEQ ID NO: 1) wherein K(Ac) is an acetylated lysine residue and Nle is a norleucine. The peptide is labeled with the fluorophore 5TMR (excitation 540 nm/emission 580 nm) at the C-terminus. The sequence of the peptide substrate is based on p53 with several modifications. In addition, the methionine residue naturally present in the sequence was replaced with the norleucine because the methionine may be susceptible to oxidation during synthesis and purification.
The mass spectrometry assay is conducted as follows: 0.5 μM peptide substrate and 120 μM βNAD+ is incubated with 10 nM SIRT1 for 25 minutes at 25° C. in a reaction buffer (50 mM Tris-acetate pH 8, 137 mM NaCl, 2.7 mM KCl, 1 mM MgCl2, 5 mM DTT, 0.05% BSA). Test compounds may be added to the reaction as described above. The SirT1 gene is cloned into a T7-promoter containing vector and transformed into BL21(DE3). After the 25 minute incubation with SIRT1, 10 μL of 10% formic acid is added to stop the reaction. Reactions are sealed and frozen for later mass spec analysis. Determination of the mass of the substrate peptide allows for precise determination of the degree of acetylation (i.e. starting material) as compared to deacetylated peptide (product).
A control for inhibition of sirtuin activity is conducted by adding 1 μL of 500 mM nicotinamide as a negative control at the start of the reaction (e.g., permits determination of maximum sirtuin inhibition). A control for activation of sirtuin activity is conducted using 10 nM of sirtuin protein, with 1 μL of DMSO in place of compound, to determinine the amount of deacetylation of the substrate at a given timepoint within the linear range of the assay. This timepoint is the same as that used for test compounds and, within the linear range, the endpoint represents a change in velocity.
For the above assay, SIRT1 protein was expressed and purified as follows. The SirT1 gene was cloned into a T7-promoter containing vector and transformed into BL21(DE3). The protein was expressed by induction with 1 mM IPTG as an N-terminal His-tag fusion protein at 18° C. overnight and harvested at 30,000×g. Cells were lysed with lysozyme in lysis buffer (50 mM Tris-HCl, 2 mM Tris[2-carboxyethyl]phosphine (TCEP), 10 μM ZnCl2, 200 mM NaCl) and further treated with sonication for 10 min for complete lysis. The protein was purified over a Ni-NTA column (Amersham) and fractions containing pure protein were pooled, concentrated and run over a sizing column (Sephadex S200 26/60 global). The peak containing soluble protein was collected and run on an Ion-exchange column (MonoQ). Gradient elution (200 mM-500 mM NaCl) yielded pure protein. This protein was concentrated and dialyzed against dialysis buffer (20 mM Tris-HCl, 2 mM TCEP) overnight. The protein was aliquoted and frozen at −80° C. until further use.
Sirtuin modulating compounds that activated SIRT1 were identified using the assay described above and are shown below in Table 1. The EC1.5 values represent the concentration of test compounds that result in 150% activation of SIRT1. The EC1.5 values for the activating compounds are represented by A (EC1.5<1.0 uM), B (EC1.5 1-25 uM), C (EC1.5>25 uM). The percent maximum fold activation is represented by A (Fold activation >200%) or B (Fold Activation <200%). “NT” indicates the compound was not tested in a particular assay.

Turning to `O=C(Nc1ncc(CN2CCOCC2)s1)c1cccn2cc(-c3cccc(OC(F)(F)F)c3)nc12` [Compound 135], the EC1.5 entry is reported as “B (EC1.5 1-25 uM)” and the Emax – broadly, the size of the effect at its maximum, as opposed to the concentration needed – was greater than 200%.
In the same order, the values of `O=C(Nc1cccc(OCC(O)CO)c1)c1cccn2cc(-c3cccc(OC(F)(F)F)c3)nc12` (stereo not drawn) [Compound 136] are “B (EC1.5 1-25 uM)” and greater than 200%.
With `O=C(Nc1cccc(OCC(O)CO)c1)c1cccn2cc(-c3cccc(C(F)(F)F)c3)nc12` (stereo not drawn) [Compound 137, N-(3-(2,3-dihydroxypropoxy)phenyl)-2-(3-(trifluoromethyl)phenyl)imidazo[1,2-a]pyridine-8-carboxamide], the EC1.5 entry was “A (EC1.5<1.0 uM)” and the Emax was greater than 200%.
Regarding `O=C(Nc1nccs1)c1nccn2cc(-c3cccc(C(F)(F)F)c3)nc12` [Compound 138, N-(thiazol-2-yl)-2-(3-(trifluoromethyl)phenyl)imidazo[1,2-a]pyrazine-8-carboxamide], the EC1.5 result is recorded as “C (EC1.5>25 uM)” and the Emax is less than 200%.
The matching figures for `Cc1ccc(NC(=O)c2cccn3cc(-c4ccc(F)cc4C(F)(F)F)nc23)cc1` [Compound 141]: “A (EC1.5<1.0 uM)” and greater than 200%.
The matching figures for `O=C(Nc1nccs1)c1nccn2cc(-c3cccc(OC(F)(F)F)c3)nc12` [Compound 142]: “C (EC1.5>25 uM)” and less than 200%.
Consider `O=C(Nc1ccccn1)c1nccn2cc(-c3cccc(OC(F)(F)F)c3)nc12` [Compound 143], for which the EC1.5 entry was “C (EC1.5>25 uM)” and the Emax was less than 200%.
`O=C(Nc1ncc(CN2CCCC2)s1)c1cccn2cc(-c3ccc(F)cc3C(F)(F)F)nc12` [Compound 146]: the EC1.5 result is “B (EC1.5 1-25 uM)” and the Emax is greater than 200%.
In the same order, the values of `O=C(Nc1ccc(CN2CCOCC2)cc1)c1cccn2cc(-c3ccc(F)cc3C(F)(F)F)nc12` [Compound 147] are “B (EC1.5 1-25 uM)” and greater than 200%.
For `O=C(Nc1nccs1)c1cccn2cc(-c3ccccc3C(F)(F)F)nc12` [Compound 148], the EC1.5 result is reported as “C (EC1.5>25 uM)” and the maximum response (Emax) is less than 200%.
Consider `O=C(Nc1ccccn1)c1cccn2cc(-c3ccccc3C(F)(F)F)nc12` [Compound 149], for which the EC1.5 result is recorded as “B (EC1.5 1-25 uM)” and the Emax was greater than 200%.
The matching figures for `O=C(Nc1nccs1)c1cccn2cc(-c3ccc(C(F)(F)F)cc3)nc12` [Compound 150]: “C (EC1.5>25 uM)” and less than 200%.
The matching figures for `O=C(Nc1ccccn1)c1cccn2cc(-c3ccc(C(F)(F)F)cc3)nc12` [Compound 151]: “C (EC1.5>25 uM)” and less than 200%.
The matching figures for `O=C(Nc1nccs1)c1cccn2cc(-c3ccccc3F)nc12` [Compound 152]: “C (EC1.5>25 uM)” and less than 200%.
In the case of `O=C(Nc1ccccn1)c1cccn2cc(-c3ccccc3F)nc12` [Compound 153], the EC1.5 result was “C (EC1.5>25 uM)” and the Emax was less than 200%.
Take `O=C(Nc1nccs1)c1cccn2cc(-c3cccc(F)c3)nc12` [Compound 154]: the EC1.5 result is recorded as “C (EC1.5>25 uM)” and the Emax is less than 200%.
In the same order, the values of `O=C(Nc1ccccn1)c1cccn2cc(-c3cccc(F)c3)nc12` [Compound 155] are “C (EC1.5>25 uM)” and less than 200%.
The matching figures for `O=C(Nc1nccs1)c1cccn2cc(-c3ccc(F)cc3)nc12` [Compound 156]: “C (EC1.5>25 uM)” and less than 200%.
The matching figures for `O=C(Nc1ccccn1)c1cccn2cc(-c3ccc(F)cc3)nc12` [Compound 157]: “B (EC1.5 1-25 uM)” and less than 200%.
Turning to `O=C(Nc1cccc(CN2CCOCC2)n1)c1nccn2cc(-c3cccc(OC(F)(F)F)c3)nc12` [Compound 158], the EC1.5 entry is listed as “A (EC1.5<1.0 uM)” and the Emax was greater than 200%.
For `O=C(Nc1cccc(CN2CCOCC2)n1)c1cccn2cc(-c3cccc(C(F)(F)F)c3)nc12` [Compound 160], the EC1.5 result is reported as “A (EC1.5<1.0 uM)” and the Emax was greater than 200%.
The matching figures for `O=C(Nc1cccc(CN2CCOCC2)n1)c1cccn2cc(-c3cccc(OC(F)(F)F)c3)nc12` [Compound 161]: “A (EC1.5<1.0 uM)” and greater than 200%.
In the case of `Cc1ccc(-c2cn3ccnc(C(=O)Nc4nccs4)c3n2)cn1` [Compound 162], the EC1.5 entry is “C (EC1.5>25 uM)” and the Emax was less than 200%.
On to `Cc1ccc(-c2cn3ccnc(C(=O)Nc4ccccn4)c3n2)cn1` [Compound 163], for which the EC1.5 entry was “B (EC1.5 1-25 uM)” and the Emax was less than 200%.
The matching figures for `Cc1ccc(-c2cn3ccnc(C(=O)Nc4nc(CN5CCOCC5)cs4)c3n2)cn1` [Compound 164]: “B (EC1.5 1-25 uM)” and less than 200%.
For the compound `Cc1ccc(-c2cn3ccnc(C(=O)Nc4cccc(CN5CCOCC5)n4)c3n2)cn1` [Compound 165], the EC1.5 result is reported as “B (EC1.5 1-25 uM)” and the Emax is less than 200%.
With `O=C(Nc1nccs1)c1cccn2cc(-c3ccc(N4CCCC4)cc3)nc12` [Compound 166], the EC1.5 entry is reported as “C (EC1.5>25 uM)” and the maximal response (Emax) was less than 200%.
For `O=C(Nc1ccccn1)c1cccn2cc(-c3ccc(N4CCCC4)cc3)nc12` [Compound 167], the EC1.5 entry was “C (EC1.5>25 uM)” and the Emax is less than 200%.
The matching figures for `O=C(Nc1nccs1)c1nccn2cc(-c3ccc(N4CCCC4)cc3)nc12` [Compound 168]: “C (EC1.5>25 uM)” and less than 200%.
The matching figures for `O=C(Nc1ccccn1)c1nccn2cc(-c3ccc(N4CCCC4)cc3)nc12` [Compound 169]: “C (EC1.5>25 uM)” and less than 200%.
Turning to `O=C(Nc1ccc(CCN2CCOCC2)cc1)c1cccn2cc(-c3ccc(F)cc3C(F)(F)F)nc12` [Compound 170], the EC1.5 entry is recorded as “A (EC1.5<1.0 uM)” and the Emax is greater than 200%.
For `O=C(Nc1nccs1)c1nccn2cc(-c3ccccc3C(F)(F)F)nc12` [Compound 171], the EC1.5 entry is “A (EC1.5<1.0 uM)” and the Emax is greater than 200%.
In the case of `O=C(Nc1ccccn1)c1nccn2cc(-c3ccccc3C(F)(F)F)nc12` [Compound 172], the EC1.5 result is “B (EC1.5 1-25 uM)” and the Emax was greater than 200%.
